# Assay results from patent US20260207578A1, “COMPOUND BASED ON SULFUR/OXYGEN SUBSTITUTED GLUTARIMIDE-BASED ISOINDOLINONE SKELETON AND USE THEREOF” (Gluetacs Therapeutics (Shanghai) Co., LTD., priority 2022, published 2026).
# How the values were obtained:
# [1] = target: T1, GSPT1 (Homo sapiens, UniProt P15170+Q96SW2); assay: Western-blot assay, substrate protein in hPBMCs; type: cell-based; details: hPBMC cells, 24 hours, tested at 50 nM and 500 nM, table does not say which
# T1 construct: endogenous in cells; host or cells: human PBMCs (Milecell Biotechnologies)
# Method in brief: (§1)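 Cellular protein levels after a 24 h degrader treatment of human PBMCs were assessed by Western blot densitometry relative to an internal control. Results are expressed as % remaining, % degraded, or DC50 versus DMSO-treated cells.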
# [2] = target: T2, Wee1 (Homo sapiens, UniProt P30291+Q96SW2); assay: Western-blot assay, substrate protein in hPBMCs; type: cell-based; details: hPBMC cells, 24 hours, tested at 50 nM and 500 nM, table does not say which
# T2 construct: endogenous in cells; host or cells: human PBMCs (Milecell Biotechnologies)
# Method in brief: as §1
# [3] = target: T3, human Cereblon WT GST-tagged protein (Homo sapiens, UniProt Q96SW2); assay: CRBN-binding affinity, HTRF (CEREBLON BINDING kit); details: displacement of Thalidomide-Re reagent, 3 hours at room temperature
# T3 construct: purchased CISBIO 64BDCRBNPEH
# Method in brief: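 Compounds displace a thalidomide-Re tracer from GST-tagged human Cereblon WT, detected with an Eu-labelled anti-GST antibody by time-resolved fluorescence. Signal at 620 nm was normalised against solvent and blank controls.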
# [4] = system: CCRF-CEM; assay: Half inhibitory concentration (IC50) against tumor cells, Cell Counting Kit-8; type: cell-based; details: Homo sapiens, CCK-8, 96 h treatment, read-out: inhibitory activity (IC50, nM) against tumor cells proliferation
# Description: (§2) The tumor cells used herein were cultured in a cell culture medium listed in table A at 37° C. in an incubator with 5% CO2.
# (§3) After the cells were treated with the compounds of the present disclosure for a period of time, the cell viability detection reagent was added to the culture medium for cell viability assessment according to the instructions provided with the CCK-8 kit. […] The growth inhibition of the compounds of the present disclosure on cells was plotted by Prism Graphpad software, and the IC50 values of the compounds of the present disclosure were calculated therefrom.
# [5] = system: CAL-62; assay: as above; type: cell-based; details: Homo sapiens, CCK-8, 96 h treatment, read-out: inhibitory activity (IC50, nM) against tumor cells proliferation
# Description: as §2, §3
# [6] = system: Kasumi-1; assay: as above; type: cell-based; details: Homo sapiens, CCK-8, 96 h treatment, read-out: inhibitory activity (IC50, nM) against tumor cells proliferation
# Description: as §2, §3
# [7] = system: MM.1S; assay: as above; type: cell-based; details: Homo sapiens, MM1.S, CCK-8, 96 h treatment, read-out: inhibitory activity (IC50, nM) against tumor cells proliferation
# Description: as §2, §3
# [8] = system: MM.1R; assay: as above; type: cell-based; details: Homo sapiens, CCK-8, 96 h treatment, read-out: inhibitory activity (IC50, nM) against tumor cells proliferation
# Description: as §2, §3
# [9] = system: THP-1; assay: as above; type: cell-based; details: Homo sapiens, CCK-8, 96 h treatment, read-out: inhibitory activity (IC50, nM) against tumor cells proliferation
# Description: as §2, §3
# [10] = system: MDA-MB-231; assay: as above; type: cell-based; details: Homo sapiens, CCK-8, 96 h treatment, read-out: inhibitory activity (IC50, nM) against tumor cells proliferation
# Description: as §2, §3
# [11] = system: MV-4-11; assay: as above; type: cell-based; details: Homo sapiens, MV4-11, CCK-8, 96 h treatment, read-out: inhibitory activity (IC50, nM) against tumor cells proliferation
# Description: as §2, §3
# [12] = system: Daudi; assay: as above; type: cell-based; details: Homo sapiens, CCK-8, 96 h treatment, read-out: inhibitory activity (IC50, nM) against tumor cells proliferation
# Description: as §2, §3
# [13] = system: JEKO-1; assay: as above; type: cell-based; details: Homo sapiens, CCK-8, 96 h treatment, read-out: inhibitory activity (IC50, nM) against tumor cells proliferation
# Description: as §2, §3
# [14] = target: T4, IKZF2 (Homo sapiens, UniProt Q96SW2+Q9UKS7); assay: Western-blot assay, substrate protein in hPBMCs; type: cell-based; details: hPBMC cells, 24 hours, tested at 50 nM and 500 nM, table does not say which
# T4 construct: endogenous in cells; host or cells: human PBMCs (Milecell Biotechnologies)
# Method in brief: as §1
# [15] = target: T5, CK1α (Homo sapiens, UniProt P48729+Q96SW2); assay: Western-blot assay, substrate protein in hPBMCs; type: cell-based; details: hPBMC cells, 24 hours, tested at 50 nM and 500 nM, table does not say which
# T5 construct: endogenous in cells; host or cells: human PBMCs (Milecell Biotechnologies)
# Method in brief: as §1
# [16] = target: T6, IKZF3 (Homo sapiens, UniProt Q96SW2+Q9UKT9); assay: Western-blot assay, substrate protein in hPBMCs; type: cell-based; details: hPBMC cells, 24 hours, tested at 50 nM and 500 nM, table does not say which
# T6 construct: endogenous in cells; host or cells: human PBMCs (Milecell Biotechnologies)
# Method in brief: (§4)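 hPBMCs (1×10^6 cells/mL) exposed 24 h to compound at 50 nM and 500 nM, lysed, and probed by Western blot. Band grayscale normalized to internal control gives % protein remaining versus DMSO; DC50 from concentration-response fit at half DMSO band intensity.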
# [17] = target: T7, IKZF1 (Homo sapiens, UniProt Q13422+Q96SW2); assay: Western-blot assay, substrate protein in hPBMCs; type: cell-based; details: hPBMC cells, 24 hours, tested at 50 nM and 500 nM, table does not say which
# T7 construct: endogenous in cells; host or cells: human PBMCs (Milecell Biotechnologies)
# Method in brief: as §4
# T1 sequence (P15170 whole entry): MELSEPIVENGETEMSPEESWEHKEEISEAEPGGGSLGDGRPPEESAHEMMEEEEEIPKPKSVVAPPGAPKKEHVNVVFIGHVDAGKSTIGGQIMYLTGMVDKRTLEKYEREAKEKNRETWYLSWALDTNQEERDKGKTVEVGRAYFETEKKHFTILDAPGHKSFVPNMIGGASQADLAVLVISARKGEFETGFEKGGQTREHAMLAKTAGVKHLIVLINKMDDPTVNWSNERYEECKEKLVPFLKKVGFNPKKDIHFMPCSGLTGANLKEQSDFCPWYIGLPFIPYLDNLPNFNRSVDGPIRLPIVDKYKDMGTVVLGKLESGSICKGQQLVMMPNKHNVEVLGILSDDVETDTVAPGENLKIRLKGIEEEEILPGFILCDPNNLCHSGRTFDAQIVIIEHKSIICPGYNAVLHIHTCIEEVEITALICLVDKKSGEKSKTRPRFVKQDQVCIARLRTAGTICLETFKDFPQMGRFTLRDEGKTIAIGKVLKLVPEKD
# T1 sequence (Q96SW2 whole entry): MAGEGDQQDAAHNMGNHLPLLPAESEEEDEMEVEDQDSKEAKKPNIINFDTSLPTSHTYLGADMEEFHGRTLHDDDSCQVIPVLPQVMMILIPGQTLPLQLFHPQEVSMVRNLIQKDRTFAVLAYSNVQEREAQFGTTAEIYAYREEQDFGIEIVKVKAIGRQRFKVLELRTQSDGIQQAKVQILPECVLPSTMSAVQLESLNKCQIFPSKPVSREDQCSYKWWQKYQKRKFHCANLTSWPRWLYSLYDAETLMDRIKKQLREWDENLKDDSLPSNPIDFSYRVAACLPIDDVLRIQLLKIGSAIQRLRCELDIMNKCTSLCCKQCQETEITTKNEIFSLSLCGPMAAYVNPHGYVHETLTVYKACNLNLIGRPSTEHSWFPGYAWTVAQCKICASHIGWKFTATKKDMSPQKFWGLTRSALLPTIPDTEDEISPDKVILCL
# T1 sequence (Q16531 whole entry partner): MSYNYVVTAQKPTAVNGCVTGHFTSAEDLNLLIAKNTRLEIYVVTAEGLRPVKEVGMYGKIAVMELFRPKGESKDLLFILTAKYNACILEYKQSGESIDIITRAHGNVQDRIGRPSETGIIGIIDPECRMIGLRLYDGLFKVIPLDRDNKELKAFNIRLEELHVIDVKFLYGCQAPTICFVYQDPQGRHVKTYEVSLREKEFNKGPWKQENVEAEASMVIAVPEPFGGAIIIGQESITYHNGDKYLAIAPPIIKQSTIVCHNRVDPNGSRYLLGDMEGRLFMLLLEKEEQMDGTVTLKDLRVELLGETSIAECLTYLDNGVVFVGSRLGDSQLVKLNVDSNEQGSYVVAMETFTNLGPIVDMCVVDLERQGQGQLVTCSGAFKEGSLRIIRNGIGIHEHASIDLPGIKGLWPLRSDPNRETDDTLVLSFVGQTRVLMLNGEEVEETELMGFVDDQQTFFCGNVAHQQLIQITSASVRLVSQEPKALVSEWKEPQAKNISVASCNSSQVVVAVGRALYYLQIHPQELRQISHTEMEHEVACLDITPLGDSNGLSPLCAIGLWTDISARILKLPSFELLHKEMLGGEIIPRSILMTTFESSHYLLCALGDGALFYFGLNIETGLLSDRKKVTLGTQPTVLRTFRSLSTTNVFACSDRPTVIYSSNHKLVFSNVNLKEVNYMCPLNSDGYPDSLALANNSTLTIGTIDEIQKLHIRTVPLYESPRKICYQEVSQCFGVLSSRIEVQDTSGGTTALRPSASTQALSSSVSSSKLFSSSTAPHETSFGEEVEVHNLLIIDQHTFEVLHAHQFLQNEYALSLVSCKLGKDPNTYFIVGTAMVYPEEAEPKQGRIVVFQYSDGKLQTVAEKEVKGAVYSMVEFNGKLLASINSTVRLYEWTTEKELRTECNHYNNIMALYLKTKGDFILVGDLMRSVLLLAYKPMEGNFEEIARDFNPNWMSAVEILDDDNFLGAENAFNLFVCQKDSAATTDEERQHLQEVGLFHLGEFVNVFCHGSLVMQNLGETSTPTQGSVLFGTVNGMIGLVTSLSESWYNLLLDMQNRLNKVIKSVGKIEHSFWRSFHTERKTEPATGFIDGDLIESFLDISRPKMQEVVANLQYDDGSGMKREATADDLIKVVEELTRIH
# T3 sequence (Q96SW2 whole entry): as the sequence (Q96SW2 whole entry) above
# T6 sequence (Q9UKT9 whole entry): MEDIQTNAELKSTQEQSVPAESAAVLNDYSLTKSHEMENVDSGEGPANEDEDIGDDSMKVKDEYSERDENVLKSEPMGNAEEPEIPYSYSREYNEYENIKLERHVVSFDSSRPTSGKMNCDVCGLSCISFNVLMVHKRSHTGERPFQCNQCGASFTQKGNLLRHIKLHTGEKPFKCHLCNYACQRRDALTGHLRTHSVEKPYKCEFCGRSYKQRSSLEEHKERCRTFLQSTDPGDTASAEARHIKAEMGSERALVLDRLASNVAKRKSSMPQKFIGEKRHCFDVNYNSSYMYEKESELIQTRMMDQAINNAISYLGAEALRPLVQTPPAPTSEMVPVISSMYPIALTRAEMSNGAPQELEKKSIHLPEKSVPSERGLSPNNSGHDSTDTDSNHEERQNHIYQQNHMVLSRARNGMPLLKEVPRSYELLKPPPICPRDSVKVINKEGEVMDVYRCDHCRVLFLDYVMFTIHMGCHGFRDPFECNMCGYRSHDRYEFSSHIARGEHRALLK
# T6 sequence (Q96SW2 whole entry): as the sequence (Q96SW2 whole entry) above
# T6 sequence (Q16531 whole entry partner): as the sequence (Q16531 whole entry partner) above
# T5 sequence (P48729 whole entry): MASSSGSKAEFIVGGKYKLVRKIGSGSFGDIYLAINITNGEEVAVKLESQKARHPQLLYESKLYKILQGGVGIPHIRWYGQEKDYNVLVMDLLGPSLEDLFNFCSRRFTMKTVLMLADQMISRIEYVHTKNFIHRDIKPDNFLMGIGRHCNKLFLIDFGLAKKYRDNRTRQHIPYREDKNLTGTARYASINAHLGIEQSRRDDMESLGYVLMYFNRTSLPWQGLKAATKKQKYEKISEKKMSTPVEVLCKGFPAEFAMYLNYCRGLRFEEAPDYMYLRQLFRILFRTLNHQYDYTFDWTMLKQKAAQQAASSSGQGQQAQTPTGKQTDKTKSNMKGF
# T5 sequence (Q96SW2 whole entry): as the sequence (Q96SW2 whole entry) above
# T5 sequence (Q16531 whole entry partner): as the sequence (Q16531 whole entry partner) above
# T4 sequence (Q9UKS7 whole entry): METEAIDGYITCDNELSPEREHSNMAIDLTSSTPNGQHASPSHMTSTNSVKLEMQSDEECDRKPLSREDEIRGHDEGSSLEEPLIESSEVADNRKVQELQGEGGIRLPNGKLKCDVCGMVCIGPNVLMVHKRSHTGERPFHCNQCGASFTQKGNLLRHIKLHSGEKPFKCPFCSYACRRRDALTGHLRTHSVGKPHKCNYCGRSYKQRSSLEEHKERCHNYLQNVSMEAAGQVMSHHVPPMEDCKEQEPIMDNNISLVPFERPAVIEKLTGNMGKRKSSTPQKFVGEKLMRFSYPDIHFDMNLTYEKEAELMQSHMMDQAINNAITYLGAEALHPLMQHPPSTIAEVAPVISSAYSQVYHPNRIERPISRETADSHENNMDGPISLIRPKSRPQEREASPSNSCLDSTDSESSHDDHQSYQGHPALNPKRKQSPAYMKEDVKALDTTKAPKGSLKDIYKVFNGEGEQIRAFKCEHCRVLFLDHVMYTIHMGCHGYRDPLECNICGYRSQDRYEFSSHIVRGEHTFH
# T4 sequence (Q96SW2 whole entry): as the sequence (Q96SW2 whole entry) above
# T4 sequence (Q16531 whole entry partner): as the sequence (Q16531 whole entry partner) above
# T2 sequence (P30291 whole entry): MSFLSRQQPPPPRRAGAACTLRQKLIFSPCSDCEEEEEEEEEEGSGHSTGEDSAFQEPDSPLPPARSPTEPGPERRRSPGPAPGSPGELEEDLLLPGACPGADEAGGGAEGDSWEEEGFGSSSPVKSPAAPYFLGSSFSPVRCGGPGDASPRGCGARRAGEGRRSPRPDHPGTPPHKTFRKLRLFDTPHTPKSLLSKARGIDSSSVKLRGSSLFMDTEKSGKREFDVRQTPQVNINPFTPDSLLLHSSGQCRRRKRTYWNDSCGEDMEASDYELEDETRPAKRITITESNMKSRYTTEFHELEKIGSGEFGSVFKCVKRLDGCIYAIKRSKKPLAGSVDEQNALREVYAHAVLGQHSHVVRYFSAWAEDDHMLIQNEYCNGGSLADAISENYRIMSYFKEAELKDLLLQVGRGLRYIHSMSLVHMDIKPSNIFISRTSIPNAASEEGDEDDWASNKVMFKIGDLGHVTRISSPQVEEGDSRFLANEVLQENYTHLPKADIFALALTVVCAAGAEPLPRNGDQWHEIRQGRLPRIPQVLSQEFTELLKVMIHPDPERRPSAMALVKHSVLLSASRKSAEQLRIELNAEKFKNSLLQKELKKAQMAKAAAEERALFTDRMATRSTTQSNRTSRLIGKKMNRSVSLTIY
# T2 sequence (Q96SW2 whole entry): as the sequence (Q96SW2 whole entry) above
# T2 sequence (Q16531 whole entry partner): as the sequence (Q16531 whole entry partner) above
IC50 [3] [nM],IC50 [4] [nM],IC50 [5] [nM],IC50 [6] [nM],IC50 [7] [nM],IC50 [8] [nM],IC50 [9] [nM],IC50 [10] [nM],IC50 [11] [nM],IC50 [12] [nM],IC50 [13] [nM],SMILES,substrate protein remaining % [1],substrate protein remaining % [2],substrate protein remaining % [14],substrate protein remaining % [15],substrate protein remaining % [16],substrate protein remaining % [17]
500 to 1000,500 to 1000,100 to 500,–,–,–,–,–,–,–,–,"CC1(C)CCC(CN2CCC(Sc3ccc4c(c3)CN(C3CCC(=O)NC3=O)C4=O)CC2)=C(c2ccc(Cl)cc2)C1 (stereo not drawn) [GT-03462, 3-(5-((1-((4′-chloro-5,5-dimethyl-3,4,5,6-tetrahydro-[1,1′-biphenyl]-2-yl)methyl)piperidin-4-yl)thio)-1-oxoisoindolin-2-yl)piperidine-2,6-dione]",A (0%≤ substrate protein remaining % ≤80%),A (0%≤ substrate protein remaining % ≤80%),–,–,–,–
–,> 10000,> 10000,> 10000,500 to 1000,> 10000,> 10000,> 10000,> 10000,> 10000,> 10000,"Nc1cccc2c1C(=O)N(C1CCC(=O)NC1=O)C2=O (stereo not drawn) [pomalidomide, reference compound]",–,–,–,–,–,–
< 500,–,–,–,10 to 50,–,–,–,–,–,–,"O=C1CCC(N2Cc3cc(OC4CCN(C(=O)c5ccccc5-c5ccc(Cl)cc5)CC4)ccc3C2=O)C(=O)N1 (stereo not drawn) [GT-06204, 3-(5-((1-(4′-chloro-[1,1′-biphenyl]-2-carbonyl)piperidin-4-yl)oxy)-1-oxoisoindolin-2-yl)piperidine-2,6-dione]",A (0%≤ substrate protein remaining % ≤80%),–,A (0%≤ substrate protein remaining % ≤80%),A (0%≤ substrate protein remaining % ≤80%),A (0%≤ substrate protein remaining % ≤80%),–
< 500,–,–,–,10 to 50,–,–,–,–,–,–,"O=C1CCC(N2Cc3cc(SC4CCN(C(=O)c5ccccc5-c5ccc(Cl)cc5)CC4)ccc3C2=O)C(=O)N1 (stereo not drawn) [GT-06182, 3-(5-((1-(4′-chloro-[1,1′-biphenyl]-2-carbonyl)piperidin-4-yl)thio)-1-oxoisoindolin-2-yl)piperidine-2,6-dione]",A (0%≤ substrate protein remaining % ≤80%),A (0%≤ substrate protein remaining % ≤80%),–,A (0%≤ substrate protein remaining % ≤80%),A (0%≤ substrate protein remaining % ≤80%),A (0%≤ substrate protein remaining % ≤80%)
–,100 to 500,–,–,–,–,–,–,–,100 to 500,–,"O=C1CCC(N2Cc3cc(SC4CCN(Cc5ccccc5-c5ccc(Cl)cc5)CC4)ccc3C2=O)C(=O)N1 (stereo not drawn) [GT-03357, 3-(5-((1-((4′-chloro-[1,1′-biphenyl]-2-yl)methyl)piperidin-4-yl)thio)-1-oxoisoindolin-2-yl)piperidine-2,6-dione]",A (0%≤ substrate protein remaining % ≤80%),–,–,–,A (0%≤ substrate protein remaining % ≤80%),–
< 500,–,–,–,–,–,500 to 1000,–,–,–,–,"CC1(C)CCC(CN2CCC(Sc3ccc4c(c3)CN(C3CCC(=O)NC3=O)C4=O)C2)=C(c2ccc(Cl)cc2)C1 (stereo not drawn) [GT-04245, 3-(5-((1-((4′-chloro-5,5-dimethyl-3,4,5,6-tetrahydro-[1,1′-biphenyl]-2-yl)methyl)pyrrolidin-3-yl)thio)-1-oxoisoindolin-2-yl)piperidine-2,6-dione]",A (0%≤ substrate protein remaining % ≤80%),–,A (0%≤ substrate protein remaining % ≤80%),–,–,–
